This passage reports TGI and GI50 results from PubChem BioAssay (NCI).

Some test systems named below: OVCAR-3 ovarian; UO-31 renal; MALME-3M melanoma; SR leukemia; NCI-H460 lung; HOP-62 NSCLC; ACHN renal; NCI-H23 lung; RPMI-8226 leukemia; SF-539 CNS.
Holding throughout (test): DTP human tumour cell line panel, 48 h

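All cell lines were grown in 96-well plates and treated with compound for 48 hours. GI50 is the concentration that inhibits growth by half. The concentration for full growth arrest is given as TGI.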

What is called TGI is the concentration at which net growth stops. Lower therefore signals more potent growth arrest. As for `NC(=O)C(=O)C1C(=O)N(c2ccccc2)N=C1N` (stereo not drawn), the TGI with OVCAR-3 ovarian, in the experiment on UO-31 renal, in the experiment with MALME-3M melanoma, with SR leukemia, in the experiment on NCI-H460 lung and in the experiment on HOP-62 NSCLC was over 100 µM each time. Moreover, the TGI with ACHN renal, in the experiment on NCI-H23 lung, in the experiment on RPMI-8226 leukemia and in the experiment with SF-539 CNS was over 100 µM in each case.

As a reminder, the GI50 is the concentration that inhibits growth by half. Consider `CN(C)c1cc2c(Nc3ccc4c(cnn4Cc4ccccc4)c3)ncnc2cn1`, for which the GI50 in the experiment on OVCAR-3 ovarian is 6.43 µM; in the experiment on UO-31 renal, 4.06 µM; in the experiment on MALME-3M melanoma, 12.9 µM; with SR leukemia it was 12.8 µM; with NCI-H460 lung, 10.3 µM; in the experiment with HOP-62 NSCLC, 8.35 µM. Also, the GI50 in the experiment on ACHN renal was 2.1 µM; with NCI-H23 lung it was 9.52 µM; with RPMI-8226 leukemia, 10.9 µM; in the experiment on SF-539 CNS, 10.1 µM. Moreover, the TGI was over 25 µM with OVCAR-3 ovarian; over 18.4 µM in the experiment on UO-31 renal; over 25 µM in the experiment on MALME-3M melanoma; over 25 µM in the experiment with SR leukemia; over 25 µM in the experiment with NCI-H460 lung; over 23.9 µM in the experiment with HOP-62 NSCLC. Moreover, the TGI in the experiment on ACHN renal, with NCI-H23 lung, with RPMI-8226 leukemia and with SF-539 CNS was over 25 µM throughout.

In the case of `O=C1C(Cl)=C(Nc2cc(Cl)ccc2O)C(=O)N1Cc1ccccc1`, the GI50 with OVCAR-3 ovarian is 18.6 µM; in the experiment with UO-31 renal, 32.7 µM; in the experiment on MALME-3M melanoma, 20.7 µM; with SR leukemia, 38.6 µM; in the experiment on NCI-H460 lung, 17.7 µM; with HOP-62 NSCLC it was 34 µM. For the same compound, the GI50 in the experiment on ACHN renal was 17.2 µM; in the experiment with NCI-H23 lung, 16.6 µM; with RPMI-8226 leukemia it was 11.9 µM; in the experiment with SF-539 CNS it was 20 µM. Moreover, the concentration for total growth inhibition (TGI) was 35.8 µM in the experiment with OVCAR-3 ovarian; over 54.6 µM in the experiment with UO-31 renal; 37.5 µM in the experiment with MALME-3M melanoma; over 67.7 µM in the experiment with SR leukemia; 34.3 µM in the experiment with NCI-H460 lung; over 61 µM in the experiment on HOP-62 NSCLC. For the same compound, the TGI in the experiment with ACHN renal is 31.9 µM; in the experiment on NCI-H23 lung, 31.5 µM; in the experiment on RPMI-8226 leukemia, 39.5 µM; in the experiment on SF-539 CNS, 36.3 µM.

For the compound `[Cl][Hg][c]1ccc2ccccc2c1`, the GI50 in the experiment with OVCAR-3 ovarian is 1.79 µM; in the experiment with UO-31 renal, 4.44 µM; in the experiment on MALME-3M melanoma, 1.78 µM; in the experiment with SR leukemia, 0.257 µM; with NCI-H460 lung, 4.18 µM; in the experiment with HOP-62 NSCLC it was 3.93 µM. The GI50 in the experiment on ACHN renal is 4.33 µM; in the experiment with NCI-H23 lung, 1.51 µM; in the experiment with RPMI-8226 leukemia, 2.5 µM; in the experiment with SF-539 CNS, 2.02 µM. In addition, the TGI was determined as 3.63 µM with OVCAR-3 ovarian; 8.23 µM in the experiment on UO-31 renal; 3.4 µM with MALME-3M melanoma; 5.86 µM with SR leukemia; 23.8 µM in the experiment with NCI-H460 lung; 11.8 µM in the experiment on HOP-62 NSCLC. The TGI with ACHN renal was 11.8 µM; in the experiment with NCI-H23 lung, 3.95 µM; with RPMI-8226 leukemia it was 10.1 µM; in the experiment with SF-539 CNS, 4.73 µM.

Regarding `C#CCOc1cccc(Nc2ncnc3cc(NC(=O)C=C)ccc23)c1`, the GI50 in the experiment on OVCAR-3 ovarian is 3.7 µM; with UO-31 renal it was 3.51 µM; in the experiment with MALME-3M melanoma, 17.6 µM; in the experiment with SR leukemia, 2.11 µM; in the experiment on NCI-H460 lung it was 10.4 µM; with HOP-62 NSCLC, 13.4 µM. The GI50 with ACHN renal was 4.74 µM; in the experiment on NCI-H23 lung, 26.6 µM; in the experiment on RPMI-8226 leukemia, 4.56 µM; in the experiment on SF-539 CNS, 2.89 µM. Besides, the TGI was 74.6 µM in the experiment with OVCAR-3 ovarian; 75.6 µM in the experiment with UO-31 renal; over 100 µM with MALME-3M melanoma; over 100 µM in the experiment on SR leukemia; over 100 µM with NCI-H460 lung; over 100 µM in the experiment on HOP-62 NSCLC. For the same compound, the TGI in the experiment with ACHN renal was over 100 µM; in the experiment on NCI-H23 lung, over 100 µM; in the experiment on RPMI-8226 leukemia, 38.8 µM; in the experiment with SF-539 CNS, 14 µM.

For the compound `CCCCSc1nc(N)c2cn[nH]c2n1`, the GI50 in the experiment on OVCAR-3 ovarian was 17.1 µM; in the experiment on UO-31 renal, 26.2 µM; in the experiment on MALME-3M melanoma, 24.6 µM; in the experiment on SR leukemia, 14.1 µM; with NCI-H460 lung it was 19.6 µM; in the experiment on HOP-62 NSCLC, 22.5 µM. Moreover, the GI50 in the experiment on ACHN renal was 24.8 µM; with NCI-H23 lung it was 13.8 µM; with RPMI-8226 leukemia, 17.1 µM; with SF-539 CNS, 18.3 µM. Moreover, the TGI in the experiment on OVCAR-3 ovarian is 35.1 µM; in the experiment on UO-31 renal, over 80.4 µM; with MALME-3M melanoma, 42.9 µM; in the experiment with SR leukemia it was 36.4 µM; with NCI-H460 lung, 51.1 µM; in the experiment on HOP-62 NSCLC it was 48.8 µM. In addition, the TGI in the experiment with ACHN renal was over 76.1 µM; in the experiment on NCI-H23 lung it was 30.9 µM; with RPMI-8226 leukemia, 37.9 µM; with SF-539 CNS it was 39.1 µM.

For `COc1ccc(/C=C2\COc3ccc(O)c(O)c3C2=O)cc1OC`, the GI50 in the experiment with OVCAR-3 ovarian is 0.539 µM; in the experiment with UO-31 renal, 0.789 µM; in the experiment with MALME-3M melanoma it was 1.33 µM; in the experiment with SR leukemia, 0.537 µM; in the experiment with NCI-H460 lung, 1.83 µM; with HOP-62 NSCLC it was 5.98 µM. The GI50 was 1.32 µM with ACHN renal, 1.89 µM in the experiment with NCI-H23 lung, 0.336 µM in the experiment on RPMI-8226 leukemia and 1.57 µM with SF-539 CNS. Further, the TGI in the experiment on OVCAR-3 ovarian came to 3.31 µM; in the experiment with UO-31 renal, 2.19 µM; with MALME-3M melanoma it was 3.2 µM; in the experiment with SR leukemia, 10.7 µM; in the experiment with NCI-H460 lung it was 5.02 µM; with HOP-62 NSCLC it was 39.3 µM. Further, the TGI in the experiment on ACHN renal is 2.75 µM; in the experiment with NCI-H23 lung it was 5.56 µM; in the experiment on RPMI-8226 leukemia, 1.51 µM; in the experiment with SF-539 CNS, 3.03 µM.

For `CCCCCCCCC(C)CCCCCCCCC(=O)OCC(COP(=O)([O-])OCC[N+](C)(C)C)OC(=O)CCCCCCCCC(C)CCCCCCCC` (stereo not drawn), the TGI in the experiment on OVCAR-3 ovarian, in the experiment on UO-31 renal, in the experiment on MALME-3M melanoma, in the experiment with SR leukemia, in the experiment with NCI-H460 lung and with HOP-62 NSCLC was over 100 µM throughout. Besides, the TGI in the experiment on ACHN renal, in the experiment with NCI-H23 lung and in the experiment on RPMI-8226 leukemia was over 100 µM throughout.

With `O=C(NCCCl)Nc1ccccc1`, the TGI in the experiment with OVCAR-3 ovarian, with UO-31 renal, in the experiment on MALME-3M melanoma, in the experiment on SR leukemia, in the experiment on NCI-H460 lung and with HOP-62 NSCLC was over 100 µM throughout. Moreover, the total growth inhibition concentration (TGI) with ACHN renal, in the experiment with NCI-H23 lung and in the experiment on RPMI-8226 leukemia was over 100 µM throughout.
